Results from patent publication US11395847B2, “Acylated GLP-1/GLP-2 dual agonists” (Zealand Pharma A/S, priority 2016, dated 2022).
*1 amine or outer side, *2 acyl side, *3 side chain or, on linkers, in order; H or OH if unused. Where a SMILES comes first, the peptide text is derived from it. Side-chain parts run from the residue outwards. [ ]: non-standard residue; d: D form. The star is where a group is joined. C20 diacid = O=C(O)CCCCCCCCCCCCCCCCCCC(=O)*; γGlu = O=C(O)[C@H](CCC(=O)[*:2])N[*:1]; AEEA = NCCOCCOCC(=O)O; Aib = CC(C)(N)C(=O)O

Assay: Chemical stability (RP-HPLC normalized purity after incubation at 40° C.)
Format: physicochemical
Settings: pH 6, 40° C., 14-day incubation, 0.2 mg/ml, normalized purity (area-%)
Experimental: Samples of each test peptide were dissolved in MILLIQ™ water, and the pH of the solution was adjusted to pH 6, 7, 7.5 or 9 using either HCl or NaOH. The final peptide concentration was 0.2 mg/ml. Samples were placed in glass vials and incubated at 40° C. The samples were analyzed by RP-HPLC on a C18 column with gradient elution using an acetonitrile/TFA/water eluent system. The area-percentage (area-%) of the main peak after incubation time T=t (relative to time T=0) was determined by UV spectroscopy at 220 nm.
The purity was first determined as follows: Purity(area-%)=(area of main peak/total area of all peaks)×100.
The purity was then normalized between time points by setting purity at time 0 (T=0) to 100 for each pH value for a given peptide, as follows: Normalized area-% at time t(T=t)=[area-%(T=t)/area-%(T=0)]×100.
The chemical stability assessment results after 14-day incubation (in the form of normalized purity values) are summarized in Table 4.

pH 6 normalized stability	Structure (SMILES)
A (>90% normalised stability)	CC[C@H](C)[C@H](NC(=O)[C@H](Cc1ccccc1)NC(=O)[C@H](CC(=O)O)NC(=O)[C@H](CCCNC(=N)N)NC(=O)[C@H](C)NC(=O)[C@H](C)NC(=O)[C@H](CCC(N)=O)NC(=O)[C@H](CCCCNC(=O)CC[C@H](NC(=O)CCCCCCCCCCCCCCCCC(=O)O)C(=O)O)NC(=O)[C@H](CC(=O)O)NC(=O)[C@H](CC(C)C)NC(=O)[C@@H](NC(=O)[C@@H](NC(=O)[C@H](C)NC(=O)[C@H](CC(C)C)NC(=O)[C@H](CCC(=O)O)NC(=O)[C@H](CO)NC(=O)[C@H](CO)NC(=O)[C@H](Cc1ccccc1)NC(=O)[C@H](CO)NC(=O)CNC(=O)[C@H](CCC(=O)O)NC(=O)C(C)(C)NC(=O)[C@@H](N)Cc1c[nH]cn1)[C@@H](C)O)[C@@H](C)CC)C(=O)N[C@@H](C)C(=O)N[C@@H](Cc1c[nH]c2ccccc12)C(=O)N[C@@H](CC(C)C)C(=O)N[C@H](C(=O)N[C@@H](CCC(N)=O)C(=O)N[C@@H](Cc1c[nH]cn1)C(=O)N[C@@H](CCCCN)C(=O)N[C@H](C(=O)N[C@H](C(=O)N[C@@H](CC(=O)O)C(=O)O)[C@@H](C)O)[C@@H](C)CC)[C@@H](C)CC [B, reference compound] (HELM PEPTIDE1{H.[Aib].E.G.S.F.S.S.E.L.A.T.I.L.D.K.Q.A.A.R.D.F.I.A.W.L.I.Q.H.K.I.T.D}|PEPTIDE2{[O=C(O)CCCCCCCCCCCCCCCCC(=O)[*:2]].[gGlu]}$PEPTIDE1,PEPTIDE2,16:R3-2:R2$$$V2.0)

Same assay, conditions: pH 7, 40° C., 14-day incubation, 0.2 mg/ml, normalized purity (area-%)

pH 7 normalized stability	Structure (SMILES)
A (>90% normalised stability)	CC[C@H](C)[C@H](NC(=O)[C@H](Cc1ccccc1)NC(=O)[C@H](CC(=O)O)NC(=O)[C@H](CCCNC(=N)N)NC(=O)[C@H](C)NC(=O)[C@H](C)NC(=O)[C@H](CCC(N)=O)NC(=O)[C@H](CCCCNC(=O)CC[C@H](NC(=O)CCCCCCCCCCCCCCCCC(=O)O)C(=O)O)NC(=O)[C@H](CC(=O)O)NC(=O)[C@H](CC(C)C)NC(=O)[C@@H](NC(=O)[C@@H](NC(=O)[C@H](C)NC(=O)[C@H](CC(C)C)NC(=O)[C@H](CCC(=O)O)NC(=O)[C@H](CO)NC(=O)[C@H](CO)NC(=O)[C@H](Cc1ccccc1)NC(=O)[C@H](CO)NC(=O)CNC(=O)[C@H](CCC(=O)O)NC(=O)C(C)(C)NC(=O)[C@@H](N)Cc1c[nH]cn1)[C@@H](C)O)[C@@H](C)CC)C(=O)N[C@@H](C)C(=O)N[C@@H](Cc1c[nH]c2ccccc12)C(=O)N[C@@H](CC(C)C)C(=O)N[C@H](C(=O)N[C@@H](CCC(N)=O)C(=O)N[C@@H](Cc1c[nH]cn1)C(=O)N[C@@H](CCCCN)C(=O)N[C@H](C(=O)N[C@H](C(=O)N[C@@H](CC(=O)O)C(=O)O)[C@@H](C)O)[C@@H](C)CC)[C@@H](C)CC [B, reference compound] (HELM PEPTIDE1{H.[Aib].E.G.S.F.S.S.E.L.A.T.I.L.D.K.Q.A.A.R.D.F.I.A.W.L.I.Q.H.K.I.T.D}|PEPTIDE2{[O=C(O)CCCCCCCCCCCCCCCCC(=O)[*:2]].[gGlu]}$PEPTIDE1,PEPTIDE2,16:R3-2:R2$$$V2.0)
A (>90% normalised stability)	CC[C@H](C)[C@H](NC(=O)[C@H](Cc1ccccc1)NC(=O)[C@H](CC(=O)O)NC(=O)[C@H](CCCNC(=N)N)NC(=O)[C@H](C)NC(=O)[C@H](C)NC(=O)[C@H](CCC(N)=O)NC(=O)[C@H](CCCCNC(=O)COCCOCCNC(=O)COCCOCCNC(=O)CC[C@H](NC(=O)CCCCCCCCCCCCCCCCCCC(=O)O)C(=O)O)NC(=O)[C@H](CC(=O)O)NC(=O)[C@H](CC(C)C)NC(=O)[C@@H](NC(=O)[C@@H](NC(=O)[C@H](C)NC(=O)[C@H](CC(C)C)NC(=O)[C@H](CCC(=O)O)NC(=O)[C@H](CO)NC(=O)[C@@H](NC(=O)[C@H](Cc1ccccc1)NC(=O)[C@H](CO)NC(=O)CNC(=O)[C@H](CCC(=O)O)NC(=O)C(C)(C)NC(=O)[C@@H](N)Cc1c[nH]cn1)[C@@H](C)O)[C@@H](C)O)[C@@H](C)CC)C(=O)N[C@@H](C)C(=O)N[C@@H](Cc1c[nH]c2ccccc12)C(=O)N[C@@H](CC(C)C)C(=O)N[C@@H](CCCCN)C(=O)N[C@@H](CCC(N)=O)C(=O)N[C@@H](Cc1c[nH]cn1)C(=O)N[C@@H](CCCCN)C(=O)N[C@H](C(=O)N[C@H](C(=O)N[C@@H](CC(=O)O)C(=O)O)[C@@H](C)O)[C@@H](C)CC [Compound 34] (H-H[Aib]EGSFTSELATILDK([AEEA-AEEA-γGlu-C20 diacid])QAARDFIAWLKQHKITD-OH)
A (>90% normalised stability)	CC[C@H](C)[C@H](NC(=O)[C@H](CC(C)C)NC(=O)[C@H](Cc1c[nH]c2ccccc12)NC(=O)[C@H](C)NC(=O)[C@@H](NC(=O)[C@H](Cc1ccccc1)NC(=O)[C@H](CC(=O)O)NC(=O)[C@H](CCCNC(=N)N)NC(=O)[C@H](C)NC(=O)[C@H](C)NC(=O)[C@H](CC(C)C)NC(=O)[C@H](CCCCNC(=O)CC[C@H](NC(=O)CCCCCCCCCCCCCCCCC(=O)O)C(=O)O)NC(=O)[C@H](CC(=O)O)NC(=O)[C@H](CC(C)C)NC(=O)[C@@H](NC(=O)[C@@H](NC(=O)[C@H](C)NC(=O)[C@H](CC(C)C)NC(=O)[C@H](CCC(=O)O)NC(=O)[C@H](CO)NC(=O)[C@@H](NC(=O)[C@H](Cc1ccccc1)NC(=O)[C@H](CO)NC(=O)CNC(=O)[C@H](CCC(=O)O)NC(=O)C(C)(C)NC(=O)[C@@H](N)Cc1c[nH]cn1)[C@@H](C)O)[C@@H](C)O)[C@@H](C)CC)[C@@H](C)CC)C(=O)N[C@@H](C)C(=O)N[C@@H](Cc1c[nH]cn1)C(=O)N[C@@H](CCCCN)C(=O)N[C@H](C(=O)N[C@H](C(=O)N[C@@H](CC(=O)O)C(=O)O)[C@@H](C)O)[C@@H](C)CC [Compound 14] (HELM PEPTIDE1{H.[Aib].E.G.S.F.T.S.E.L.A.T.I.L.D.K.L.A.A.R.D.F.I.A.W.L.I.A.H.K.I.T.D}|PEPTIDE2{[O=C(O)CCCCCCCCCCCCCCCCC(=O)[*:2]].[gGlu]}$PEPTIDE1,PEPTIDE2,16:R3-2:R2$$$V2.0)
A (>90% normalised stability)	CC[C@H](C)[C@H](NC(=O)[C@H](Cc1ccccc1)NC(=O)[C@H](CC(=O)O)NC(=O)[C@H](CCCNC(=N)N)NC(=O)[C@H](C)NC(=O)[C@H](C)NC(=O)[C@H](CCC(N)=O)NC(=O)[C@H](CCCCNC(=O)COCCOCCNC(=O)CC[C@H](NC(=O)CCCCCCCCCCCCCCCCC(=O)O)C(=O)O)NC(=O)[C@H](CC(=O)O)NC(=O)[C@H](CC(C)C)NC(=O)[C@@H](NC(=O)[C@@H](NC(=O)[C@H](C)NC(=O)[C@H](CC(C)C)NC(=O)[C@H](CCC(=O)O)NC(=O)[C@H](CO)NC(=O)[C@@H](NC(=O)[C@H](Cc1ccccc1)NC(=O)[C@H](CO)NC(=O)CNC(=O)[C@H](CCC(=O)O)NC(=O)C(C)(C)NC(=O)[C@@H](N)Cc1c[nH]cn1)[C@@H](C)O)[C@@H](C)O)[C@@H](C)CC)C(=O)N[C@@H](C)C(=O)N[C@@H](Cc1c[nH]c2ccccc12)C(=O)N[C@@H](CC(C)C)C(=O)N[C@@H](Cc1ccc(O)cc1)C(=O)N[C@@H](CCC(N)=O)C(=O)N[C@@H](Cc1c[nH]cn1)C(=O)N[C@@H](CCCCN)C(=O)N[C@H](C(=O)N[C@H](C(=O)N[C@@H](CC(=O)O)C(=O)O)[C@@H](C)O)[C@@H](C)CC [Compound 33] (HELM PEPTIDE1{H.[Aib].E.G.S.F.T.S.E.L.A.T.I.L.D.K.Q.A.A.R.D.F.I.A.W.L.Y.Q.H.K.I.T.D}|PEPTIDE2{[O=C(O)CCCCCCCCCCCCCCCCC(=O)[*:2]].[gGlu].[O=C(COCCOCCN[*:1])[*:2]]}$PEPTIDE1,PEPTIDE2,16:R3-3:R2$$$V2.0)
A (>90% normalised stability)	CC[C@H](C)[C@H](NC(=O)[C@H](CC(C)C)NC(=O)[C@H](Cc1c[nH]c2ccccc12)NC(=O)[C@H](C)NC(=O)[C@@H](NC(=O)[C@H](Cc1ccccc1)NC(=O)[C@H](CC(=O)O)NC(=O)[C@H](CCCNC(=N)N)NC(=O)[C@H](C)NC(=O)[C@H](C)NC(=O)[C@H](CCC(N)=O)NC(=O)[C@H](CCCCNC(=O)COCCOCCNC(=O)[C@H](CCCCN)NC(=O)[C@H](CCC(=O)O)NC(=O)[C@H](CCCCN)NC(=O)CC[C@H](NC(=O)CCCCCCCCCCCCCCCCCCC(=O)O)C(=O)O)NC(=O)[C@H](CC(=O)O)NC(=O)[C@H](CC(C)C)NC(=O)[C@@H](NC(=O)[C@@H](NC(=O)[C@H](C)NC(=O)[C@H](CC(C)C)NC(=O)[C@H](CCC(=O)O)NC(=O)[C@H](CO)NC(=O)[C@@H](NC(=O)[C@H](Cc1ccccc1)NC(=O)[C@H](CO)NC(=O)CNC(=O)[C@H](CCC(=O)O)NC(=O)C(C)(C)NC(=O)[C@@H](N)Cc1c[nH]cn1)[C@@H](C)O)[C@@H](C)O)[C@@H](C)CC)[C@@H](C)CC)C(=O)N[C@@H](C)C(=O)N[C@@H](Cc1c[nH]cn1)C(=O)N[C@@H](CCCCN)C(=O)N[C@H](C(=O)N[C@H](C(=O)N[C@@H](CC(=O)O)C(=O)O)[C@@H](C)O)[C@@H](C)CC [Compound 58] (HELM PEPTIDE1{H.[Aib].E.G.S.F.T.S.E.L.A.T.I.L.D.K.Q.A.A.R.D.F.I.A.W.L.I.A.H.K.I.T.D}|PEPTIDE2{[O=C(O)CCCCCCCCCCCCCCCCCCC(=O)[*:2]].[gGlu].K.E.K.[O=C(COCCOCCN[*:1])[*:2]]}$PEPTIDE1,PEPTIDE2,16:R3-6:R2$$$V2.0)
A (>90% normalised stability)	CC[C@H](C)[C@H](NC(=O)[C@H](Cc1ccccc1)NC(=O)[C@H](CC(=O)O)NC(=O)[C@H](CCCNC(=N)N)NC(=O)[C@H](C)NC(=O)[C@H](C)NC(=O)[C@H](CCC(N)=O)NC(=O)[C@H](CCC(=O)O)NC(=O)[C@H](CC(=O)O)NC(=O)[C@H](CC(C)C)NC(=O)[C@@H](NC(=O)[C@@H](NC(=O)[C@H](C)NC(=O)[C@H](CCCCNC(=O)COCCOCCNC(=O)[C@H](CCCCN)NC(=O)[C@H](CCC(=O)O)NC(=O)[C@H](CCCCN)NC(=O)CC[C@H](NC(=O)CCCCCCCCCCCCCCCCCCC(=O)O)C(=O)O)NC(=O)[C@H](CCC(=O)O)NC(=O)[C@H](CO)NC(=O)[C@@H](NC(=O)[C@H](Cc1ccccc1)NC(=O)[C@H](CO)NC(=O)CNC(=O)[C@H](CCC(=O)O)NC(=O)C(C)(C)NC(=O)[C@@H](N)Cc1c[nH]cn1)[C@@H](C)O)[C@@H](C)O)[C@@H](C)CC)C(=O)N[C@@H](C)C(=O)N[C@@H](Cc1c[nH]c2ccccc12)C(=O)N[C@@H](CC(C)C)C(=O)N[C@H](C(=O)N[C@@H](CCC(=O)O)C(=O)N[C@@H](Cc1c[nH]cn1)C(=O)N[C@@H](CCCCN)C(=O)N[C@H](C(=O)N[C@H](C(=O)N[C@@H](CC(=O)O)C(=O)O)[C@@H](C)O)[C@@H](C)CC)[C@@H](C)CC [Compound 53] (HELM PEPTIDE1{H.[Aib].E.G.S.F.T.S.E.K.A.T.I.L.D.E.Q.A.A.R.D.F.I.A.W.L.I.E.H.K.I.T.D}|PEPTIDE2{[O=C(O)CCCCCCCCCCCCCCCCCCC(=O)[*:2]].[gGlu].K.E.K.[O=C(COCCOCCN[*:1])[*:2]]}$PEPTIDE1,PEPTIDE2,10:R3-6:R2$$$V2.0)
